The test system of the assay is seedlings. Description: Preliminary and greenhouse tests of 1-octen-3-ol on plant growth. It counts as in vivo. An excerpt:
These endophytic microorganisms frequently are fully symbiotic with plants (Harman, Howell, et al., 2004). These endophytic symbionts have abilities to induce multiple beneficial effects in plants, including induced resistance to diseases and potentially other pests; resistance to abiotic stresses such as drought, salt and flooding; improved efficiency of uses of nitrogen and other plant nutrients; enhancement of seed germination and seedling vigor; and enhanced plant growth and development. There are numerous diverse genera of microbes that induce at least most of these changes in plant performance, including mycorrhizae, plant growth promoting rhizobacteria, and Basidomycetous fungi in the Sebaciles such as Piriformaspora indica. These organisms have an endophytic versus a plant pathogenic life style (Shoresh, Mastouri, et al., 2010) typical of numerous other plant-associated microorganisms. The systemic changes in plant gene expression are presumed to be induced by the production of specific triggering metabolites from these different organisms. […]
Unexpected is the effect of the OMEGA biorational seed treatments that contain the fungal metabolite 1-octen-3-ol, yeast extract and humic acid (Leonardite shale). […] Thus the quantities applied are very small and cannot grow or proliferate on or in plants so their effects were expected to be transitory. […]

Regarding `C=CC(O)CCCCC` (centres unmarked) [1-octen-3-ol], the seedling growth result (greenhouse, 200 to 20,000 pL in different formulations, data not shown) is listed as “plant growth promotive effects on seedling growth”. Moreover, for the setting “very low concentrations, preliminary work”, the plant growth entry is “strongly enhances plant growth”.

These data come from patent US11477952B2, “Endophytic microbial seed treatment formulations and methods related thereto for improved plant performance” (ADVANCED BIOLOGICAL MARKETING, INC., priority 2017, dated 2022).
